# Laboratory results: US20020026053A1, “Novel 3-(substituted) -2- indolinones compounds and use thereof as inhibitors of protein kinase activity” (priority 1997, published 2002)
# “And” between values parts separate entries of the source, which are not always exact repeats. Equal entries are not always repeated.
# System: PDGF-R
# Assay: PDGF-R Assay (cellular ELISA, U1242 cells)
# Assay type: cell-based
# Parameters: concentration or dose not given beside the values
# Description: The cellular/catalytic assays described herein are performed in an ELISA format. The general procedure is as follows: a compound is introduced to cells expressing the test kinase, either naturally or recombinantly, for a selected period of time after which, if the test kinase is a receptor, a ligand known to activate the receptor is added. The cells are lysed and the lysate is transferred to the wells of an ELISA plate previously coated with a specific antibody recognizing the substrate of the enzymatic phosphorylation reaction. Non-substrate components of the cell lysate are washed away and the amount of phosphorylation on the substrate is detected with an antibody specifically recognizing phosphotyrosine compared with control cells that were not contacted with a test compound.
# All cell culture media, glutamine, and fetal bovine serum can be purchased from Gibco Life Technologies (Grand Island, N.Y.) unless otherwise specified. All cells are grown in a humid atmosphere of 90-95% air and 5-10% CO2 at 37° C. All cell lines are routinely subcultured twice a week and are negative for mycoplasma as determined by the Mycotect method (Gibco).
# For ELISA assays, cells (U1242, obtained from Joseph Schlessinger, NYU) are grown to 80-90% confluency in growth medium (MEM with 10% FBS, NEAA, 1 mM NaPyr and 2 mM GLN) and seeded in 96-well tissue culture plates in 0.5% serum at 25,000 to 30,000 cells per well. After overnight incubation in 0.5% serum-containing medium, cells are changed to serum-free medium and treated with test compound for 2 hr in a 5% CO2, 37° C. incubator. Cells are then stimulated with ligand for 5-10 minute followed by lysis with HNTG (20 mM Hepes, 150 mM NaCl, 10% glycerol, 5 mM EDTA, 5 mM Na3VO4, 0.2% Triton X-100, and 2 mM NaPyr). Cell lysates (0.5 mg/well in PBS) are transferred to ELISA plates previously coated with receptor-specific antibody and which had been blocked with 5% milk in TBST (50 mM Tris-HCl pH 7.2, 150 mM NaCl and 0.1% Triton X-100) at room temperature for 30 min. Lysates are incubated with shaking for 1 hour at room temperature. The plates are washed with TBST four times and then incubated with polyclonal anti-phosphotyrosine antibody at room temperature for 30 minutes. Excess anti-phosphotyrosine antibody is removed by rinsing the plate with TBST four times. Goat anti-rabbit IgG antibody is added to the ELISA plate for 30 min at room temperature followed by rinsing with TBST four more times. ABTS (100 mM citric acid, 250 mM Na2HPO4 and 0.5 mg/mL 2,2′-azino-bis (3-ethylbenzthiazoline-6-sulfonic acid)) plus H2O2 ([…] 30% H2O2 to 10 ml ABTS) is added to the ELISA plates to start color development. Absorbance at 410 nm with a reference wavelength of 630 nm is recorded about 15 to 30 min after ABTS addition.
row,Compound,PDGF Kinase % Inhibition (P.119)
1,COc1cc(OC)c(OC)cc1C=C1C(=O)Nc2c(Br)cc(Br)c(C)c21 [10730/H03],−11.7%
2,Cc1c(Br)cc(Br)c2c1C(=Cc1cc3ccccc3nc1Cl)C(=O)N2 [10730/H08],6.3%
3,CCN(CC)c1ccc(C=C2C(=O)Nc3c(Br)cc(Br)c(C)c32)cc1 [10727/H02],−33.6%
4,Cc1c(Br)cc(Br)c2c1C(=C1C(=O)Nc3ccccc31)C(=O)N2 [10726/H09],15.1%
5,Cc1c(Br)cc(Br)c2c1C(=Cc1cc(I)c(OCc3ccccc3)c(C(C)(C)C)c1)C(=O)N2 [10733/H02],−5.6%
6,Cc1c(Br)cc(Br)c2c1C(=Cc1ccc3c(c1)Cc1ccccc1-3)C(=O)N2 [10728/H06],−25.7%
7,COc1c(C)cc(C=C2C(=O)Nc3c(Br)cc(Br)c(C)c32)cc1C [10733/H06],−12.9%
8,COc1cc(C=C2C(=O)Nc3c(Br)cc(Br)c(C)c32)cc(OC)c1OC [10730/H04],−1.2%
9,COc1cccc(C=C2C(=O)Nc3c(Br)cc(Br)c(C)c32)c1OC [10727/H11],2.8%
10,COc1c(Cl)cc(C=C2C(=O)Nc3c(Br)cc(Br)c(C)c32)cc1C(C)(C)C [10732/H09],−14.4%
11,COc1cccc(OC)c1C=C1C(=O)Nc2c(Br)cc(Br)c(C)c21 [10728/H03],−10.6%
12,Cc1c(Br)cc(Br)c2c1C(=Cc1cc(Br)c(OCc3ccccc3)c(C(C)(C)C)c1)C(=O)N2 [10732/H08],7.8%
13,Cc1c(Br)cc(Br)c2c1C(=Cc1ccc(Br)o1)C(=O)N2 [10726/H05],−38.0%
14,Cc1c(Br)cc(Br)c2c1C(=Cc1coc3ccc([N+](=O)[O-])cc3c1=O)C(=O)N2 [10731/H07],36.5%
15,COc1c([N+](=O)[O-])cc(C=C2C(=O)Nc3c(Br)cc(Br)c(C)c32)cc1C(C)(C)C [10733/H03],16.8%
16,Cc1c(Br)cc(Br)c2c1C(=Cc1cc(C(C)(C)C)c(OCc3ccccc3)c(C(C)(C)C)c1)C(=O)N2 [10733/H05],−15.3%
17,Cc1ccc2occ(C=C3C(=O)Nc4c(Br)cc(Br)c(C)c43)c(=O)c2c1 [10731/H06],−5.4%
18,COc1ccc(C=C2C(=O)Nc3c(Br)cc(Br)c(C)c32)cc1 [10726/H11],−0.1%
19,CCc1ccc(C=C2C(=O)Nc3c(Br)cc(Br)c(C)c32)s1 [10726/H10],6.9%

row,Compound,PDGF Kinase % Inhibition (P.119)
1,C=C(C)C1CC=C(C=C2C(=O)Nc3c(Br)cc(Br)c(C)c32)CC1 (centres unmarked) [10731/H04],−15.8%
2,Cc1c(Br)cc(Br)c2c1C(=Cc1ccc(N3CCCC3)cc1)C(=O)N2 [10729/H10],−1.5%
3,Cc1c(Br)cc(Br)c2c1C(=C1C(=O)Nc3ccc(F)cc31)C(=O)N2 [10726/H08],15.1%
4,Cc1c(Br)cc(Br)c2c1C(=Cc1cc(O)c3c(c1O)CCCC3)C(=O)N2 [10726/H07],−30.4%
5,Cc1c(Br)cc(Br)c2c1C(=Cc1cc(Cl)cc(Br)c1O)C(=O)N2 [10727/H04],13.7%
6,Cc1c(Br)cc(Br)c2c1C(=Cc1ccccn1)C(=O)N2 [10729/H07],−43.1%
7,COc1cc(C=C2C(=O)Nc3c(Br)cc(Br)c(C)c32)cc2c1OCO2 [10728/H11],−16.8%
8,COc1ccc2[nH]cc(C=C3C(=O)Nc4c(Br)cc(Br)c(C)c43)c2c1 [10731/H09],−5.4%
9,Cc1c(Br)cc(Br)c2c1C(=Cc1cc3c(cc1Cl)OCO3)C(=O)N2 [10727/H06],−40.8%
10,COc1c(C(C)(C)C)cc(C=C2C(=O)Nc3c(Br)cc(Br)c(C)c32)cc1C(C)(C)C [10733/H04],−14.5%
11,CCn1c2ccccc2c2cc(C=C3C(=O)Nc4c(Br)cc(Br)c(C)c43)ccc21 [10731/H02],−18.7%
12,COc1ccc(OC)c(C=C2C(=O)Nc3c(Br)cc(Br)c(C)c32)c1 [10728/H02],−9.3%
13,COC1CC(C=C2C(=O)Nc3c(Br)cc(Br)c(C)c32)C(OC)O1 (centres unmarked) [10730/H10],23.0%
14,COc1ccc(C=C2C(=O)Nc3c(Br)cc(Br)c(C)c32)c2ccccc12 [10729/H03],−0.7%
15,Cc1cc(C=C2C(=O)Nc3c(Br)cc(Br)c(C)c32)oc1C [10730/H11],9.4%
16,COc1ccc(C=C2C(=O)Nc3c(Br)cc(Br)c(C)c32)c(OC)c1OC [10730/H02],1.0%
17,Cc1c(Br)cc(Br)c2c1C(=Cc1c(F)cccc1C(F)(F)F)C(=O)N2 [10728/H09],−6.2%
18,Cc1c(Br)cc(Br)c2c1C(=Cc1cc(Br)ccc1O)C(=O)N2 [10733/H09],5.0%
19,Cc1c(Br)cc(Br)c2c1C(=Cc1ccccc1OCC(=O)O)C(=O)N2 [10728/H10],4.5%

row,Compound,PDGF Kinase % Inhibition (P.119)
1,Cc1c(Br)cc(Br)c2c1C(=Cc1c[nH]c(=O)[nH]c1=O)C(=O)N2 [10731/H08],−10.1%
2,Cc1c(Br)cc(Br)c2c1C(=CC1C=CCCC1)C(=O)N2 (centres unmarked) [10729/H11],5.0%
3,COc1c(I)cc(C=C2C(=O)Nc3c(Br)cc(Br)c(C)c32)cc1C(C)(C)C [10732/H11],−16.0%
4,Cc1c(Br)cc(Br)c2c1C(=Cc1cccc(Oc3ccccc3)c1)C(=O)N2 [10729/H06],−12.1%
5,Cc1c(Br)cc(Br)c2c1C(=Cc1cc(O)ccc1O)C(=O)N2 [10727/H10],10.1%
6,COc1cc(C=C2C(=O)Nc3c(Br)cc(Br)c(C)c32)cc(OC)c1 [10728/H04],−5.7%
7,Cc1c(Br)cc(Br)c2c1C(=Cc1ccccc1Sc1ccc(Cl)cc1)C(=O)N2 [10727/H05],−28.5%
8,COc1c(O)ccc(C=C2C(=O)Nc3c(Br)cc(Br)c(C)c32)c1[N+](=O)[O-] [10733/H11],−4.8%
9,COc1cc(N(C)C)ccc1C=C1C(=O)Nc2c(Br)cc(Br)c(C)c21 [10728/H05],−10.6% and −5.3%
10,COc1cc(Br)cc(C=C2C(=O)Nc3c(Br)cc(Br)c(C)c32)c1O [10733/H08],−15.3%
11,COc1ccc(C=C2C(=O)Nc3c(Br)cc(Br)c(C)c32)cc1C(C)(C)C [10732/H05],−25.6%
12,CCc1cc(CC)c(C=C2C(=O)Nc3c(Br)cc(Br)c(C)c32)[nH]1 [10727/H03],−20.5%
13,Cc1c(Br)cc(Br)c2c1C(=Cc1cccc(C#N)c1)C(=O)N2 [10727/H08],−27.0%
14,Cc1c(Br)cc(Br)c2c1C(=Cc1ccc(OCc3ccccc3)c(C(C)(C)C)c1)C(=O)N2 [10732/H06],−18.0%
15,Cc1c(Br)cc(Br)c2c1C(=C1C(=O)N(C)c3ccccc31)C(=O)N2 [10731/H10],40.3%
16,Cc1c(Br)cc(Br)c2c1C(=Cc1cccnc1)C(=O)N2 [10729/H08],−1.5%
17,COc1c(Br)cc(C=C2C(=O)Nc3c(Br)cc(Br)c(C)c32)cc1C(C)(C)C [10732/H07],−22.0%
18,Cc1cc(C=C2C(=O)Nc3c(Br)cc(Br)c(C)c32)cc(C)c1OCc1ccccc1 [10733/H07],−19.0%
